Source: the supplement of paper PMC13380429
± gives the standard deviation of the averaged measurements.

Key:
Settings in all cases: 72 h
[1] = tested on: HepG2; assay: relative viability EC50 (midpoint between 100% and the lowest measured viability); higher = less toxic
[2] = tested on: Caco-2; assay: as above
[3] = tested on: Vero E6; assay: as above
[4] = tested on: U2OS; assay: as above
[5] = tested on: Calu-3; assay: as above
[6] = tested on: HepG2; assay: drug sensitivity score (DSS) for viability; higher = more toxic; extreme values may be limits of the assay
[7] = tested on: Caco-2; assay: as above
[8] = tested on: Vero E6; assay: as above
[9] = tested on: U2OS; assay: as above
[10] = tested on: Calu-3; assay: as above
[11] = tested on: HepG2; assay: cell viability relative to DMSO; higher = less toxic
[12] = tested on: Caco-2; assay: as above
[13] = tested on: Vero E6; assay: as above
[14] = tested on: U2OS; assay: as above
[15] = tested on: Calu-3; assay: as above

O=C(N[C@@H]1Cc2ccccc2N(C[C@@H](O)CO)C1=O)c1cc2cc(Cl)sc2[nH]1 [GPi-688]
relative viability EC50 [1]: > 10 µM | relative viability EC50 [2]: > 10 µM | relative viability EC50 [3]: > 10 µM | relative viability EC50 [4]: > 10 µM | relative viability EC50 [5]: > 10 µM | drug sensitivity score [6]: 0 | drug sensitivity score [7]: 0 | drug sensitivity score [8]: 0 | drug sensitivity score [9]: 0 | drug sensitivity score [10]: 0.3 | cell viability ([11]; 1 nM): 96% | cell viability ([11]; 10 nM): 104% | cell viability ([11]; 100 nM): 98.1% | cell viability ([11]; 1000 nM): 104% | cell viability ([11]; 10000 nM): 100% | cell viability ([12]; 1 nM): 101% | cell viability ([12]; 10 nM): 98% | cell viability ([12]; 100 nM): 96.9% | cell viability ([12]; 1000 nM): 94.2% | cell viability ([12]; 10000 nM): 92.9% | cell viability ([13]; 1 nM): 99.9% | cell viability ([13]; 10 nM): 102% | cell viability ([13]; 100 nM): 104% | cell viability ([13]; 1000 nM): 100% | cell viability ([13]; 10000 nM): 90.5% | cell viability ([14]; 1 nM): 98.4% | cell viability ([14]; 10 nM): 102% | cell viability ([14]; 100 nM): 95.2% | cell viability ([14]; 1000 nM): 96.8% | cell viability ([14]; 10000 nM): 94.7% | cell viability ([15]; 1 nM): 102% | cell viability ([15]; 10 nM): 99.3% | cell viability ([15]; 100 nM): 99.9% | cell viability ([15]; 1000 nM): 94.1% | cell viability ([15]; 10000 nM): 87.8%

CC12CCC(CC1=O)C2(C)C (stereo not drawn) [camphor-(+)]
relative viability EC50 [1]: > 10 µM | relative viability EC50 [2]: > 10 µM | relative viability EC50 [3]: > 10 µM | relative viability EC50 [4]: > 10 µM | relative viability EC50 [5]: > 10 µM | drug sensitivity score [6]: 0.15 ± 0.21 | drug sensitivity score [7]: 0 | drug sensitivity score [8]: 0 | drug sensitivity score [9]: 0 | drug sensitivity score [10]: 0 | cell viability ([11]; 1 nM): 95.8 ± 3.6% | cell viability ([11]; 10 nM): 104 ± 13% | cell viability ([11]; 100 nM): 96.1 ± 0.42% | cell viability ([11]; 1000 nM): 98.2 ± 1.8% | cell viability ([11]; 10000 nM): 96.6 ± 14% | cell viability ([12]; 1 nM): 95.2 ± 8.1% | cell viability ([12]; 10 nM): 90.5 ± 0.99% | cell viability ([12]; 100 nM): 99.2 ± 3.3% | cell viability ([12]; 1000 nM): 93.8 ± 7.3% | cell viability ([12]; 10000 nM): 99.3 ± 6.2% | cell viability ([13]; 1 nM): 96.9 ± 3.2% | cell viability ([13]; 10 nM): 98.5 ± 2.7% | cell viability ([13]; 100 nM): 99.2 ± 4.2% | cell viability ([13]; 1000 nM): 96.7 ± 2% | cell viability ([13]; 10000 nM): 101 ± 9.5% | cell viability ([14]; 1 nM): 101 ± 2.5% | cell viability ([14]; 10 nM): 101 ± 6% | cell viability ([14]; 100 nM): 99.8 ± 0.42% | cell viability ([14]; 1000 nM): 101 ± 5.5% | cell viability ([14]; 10000 nM): 99.8 ± 3.1% | cell viability ([15]; 1 nM): 86% | cell viability ([15]; 10 nM): 101% | cell viability ([15]; 100 nM): 102% | cell viability ([15]; 1000 nM): 112% | cell viability ([15]; 10000 nM): 112%

CCc1cc2c(cc1CC)CC(NC[C@H](O)c1ccc(O)c3[nH]c(=O)ccc13)C2 [indacaterol]
relative viability EC50 [1]: > 10 µM | relative viability EC50 [2]: > 10 µM | relative viability EC50 [3]: > 10 µM | relative viability EC50 [4]: > 10 µM | relative viability EC50 [5]: > 10 µM | drug sensitivity score [6]: 0.2 | drug sensitivity score [7]: 0 | drug sensitivity score [8]: 0 | drug sensitivity score [9]: 0 | drug sensitivity score [10]: 0 | cell viability ([11]; 1 nM): 121% | cell viability ([11]; 10 nM): 115% | cell viability ([11]; 100 nM): 98.4% | cell viability ([11]; 1000 nM): 115% | cell viability ([11]; 10000 nM): 81% | cell viability ([12]; 1 nM): 89.7% | cell viability ([12]; 10 nM): 97% | cell viability ([12]; 100 nM): 101% | cell viability ([12]; 1000 nM): 94.8% | cell viability ([12]; 10000 nM): 96.4% | cell viability ([13]; 1 nM): 96.8% | cell viability ([13]; 10 nM): 94.3% | cell viability ([13]; 100 nM): 96.8% | cell viability ([13]; 1000 nM): 96.3% | cell viability ([13]; 10000 nM): 94.2% | cell viability ([14]; 1 nM): 106% | cell viability ([14]; 10 nM): 100% | cell viability ([14]; 100 nM): 104% | cell viability ([14]; 1000 nM): 95.6% | cell viability ([14]; 10000 nM): 95.4% | cell viability ([15]; 1 nM): 112% | cell viability ([15]; 10 nM): 94.2% | cell viability ([15]; 100 nM): 112% | cell viability ([15]; 1000 nM): 101% | cell viability ([15]; 10000 nM): 91.5%

CCOC(=O)Nc1ccc2c(c1)N(C(=O)CCN(CC)CC)c1ccccc1S2 [ethacizin]
relative viability EC50 [1]: > 10 µM | relative viability EC50 [2]: > 10 µM | relative viability EC50 [3]: > 10 µM | relative viability EC50 [4]: > 10 µM | relative viability EC50 [5]: > 10 µM | drug sensitivity score [6]: 0.2 | drug sensitivity score [7]: 0 | drug sensitivity score [8]: 0 | drug sensitivity score [9]: 0 | drug sensitivity score [10]: 0 | cell viability ([11]; 1 nM): 86.4% | cell viability ([11]; 10 nM): 90.4% | cell viability ([11]; 100 nM): 80.8% | cell viability ([11]; 1000 nM): 92.7% | cell viability ([11]; 10000 nM): 104% | cell viability ([12]; 1 nM): 94.6% | cell viability ([12]; 10 nM): 82.9% | cell viability ([12]; 100 nM): 97.8% | cell viability ([12]; 1000 nM): 103% | cell viability ([12]; 10000 nM): 97.6% | cell viability ([13]; 1 nM): 104% | cell viability ([13]; 10 nM): 91.8% | cell viability ([13]; 100 nM): 103% | cell viability ([13]; 1000 nM): 88.9% | cell viability ([13]; 10000 nM): 106% | cell viability ([14]; 1 nM): 97.2% | cell viability ([14]; 10 nM): 105% | cell viability ([14]; 100 nM): 95.6% | cell viability ([14]; 1000 nM): 101% | cell viability ([14]; 10000 nM): 95.9% | cell viability ([15]; 1 nM): 98.3% | cell viability ([15]; 10 nM): 94.8% | cell viability ([15]; 100 nM): 97.4% | cell viability ([15]; 1000 nM): 99.2% | cell viability ([15]; 10000 nM): 98.1%

O=C(CCc1ccncc1)NNC(=O)N1Cc2ccccc2Oc2ccc(Cl)cc21
relative viability EC50 [1]: > 10 µM | relative viability EC50 [2]: > 10 µM | relative viability EC50 [3]: > 10 µM | relative viability EC50 [4]: > 10 µM | relative viability EC50 [5]: > 10 µM | drug sensitivity score [6]: 0 | drug sensitivity score [7]: 0 | drug sensitivity score [8]: 0 | drug sensitivity score [9]: 0 | drug sensitivity score [10]: 0 | cell viability ([11]; 1 nM): 117% | cell viability ([11]; 10 nM): 106% | cell viability ([11]; 100 nM): 111% | cell viability ([11]; 1000 nM): 99.9% | cell viability ([11]; 10000 nM): 107% | cell viability ([12]; 1 nM): 88.1% | cell viability ([12]; 10 nM): 99.1% | cell viability ([12]; 100 nM): 92.7% | cell viability ([12]; 1000 nM): 95.6% | cell viability ([12]; 10000 nM): 98.4% | cell viability ([13]; 1 nM): 100% | cell viability ([13]; 10 nM): 98.4% | cell viability ([13]; 100 nM): 101% | cell viability ([13]; 1000 nM): 94.9% | cell viability ([13]; 10000 nM): 109% | cell viability ([14]; 1 nM): 96.4% | cell viability ([14]; 10 nM): 103% | cell viability ([14]; 100 nM): 96.8% | cell viability ([14]; 1000 nM): 102% | cell viability ([14]; 10000 nM): 100% | cell viability ([15]; 1 nM): 103% | cell viability ([15]; 10 nM): 96.4% | cell viability ([15]; 100 nM): 97.3% | cell viability ([15]; 1000 nM): 87.8% | cell viability ([15]; 10000 nM): 95.4%

Clc1ccc(C(Cn2ccnc2)OCc2ccsc2Cl)c(Cl)c1 (stereo not given) [tioconazole]
relative viability EC50 [1]: > 10 µM | relative viability EC50 [2]: > 10 µM | relative viability EC50 [3]: > 10 µM | relative viability EC50 [4]: > 10 µM | relative viability EC50 [5]: > 10 µM | drug sensitivity score [6]: 0 | drug sensitivity score [7]: 0.6 | drug sensitivity score [8]: 0 | drug sensitivity score [9]: 0 | drug sensitivity score [10]: 0 | cell viability ([11]; 1 nM): 108% | cell viability ([11]; 10 nM): 100% | cell viability ([11]; 100 nM): 112% | cell viability ([11]; 1000 nM): 102% | cell viability ([11]; 10000 nM): 90.7% | cell viability ([12]; 1 nM): 106% | cell viability ([12]; 10 nM): 95% | cell viability ([12]; 100 nM): 93.5% | cell viability ([12]; 1000 nM): 99% | cell viability ([12]; 10000 nM): 81.2% | cell viability ([13]; 1 nM): 100% | cell viability ([13]; 10 nM): 104% | cell viability ([13]; 100 nM): 99.8% | cell viability ([13]; 1000 nM): 97% | cell viability ([13]; 10000 nM): 101% | cell viability ([14]; 1 nM): 100% | cell viability ([14]; 10 nM): 97.2% | cell viability ([14]; 100 nM): 96.9% | cell viability ([14]; 1000 nM): 92.9% | cell viability ([14]; 10000 nM): 93% | cell viability ([15]; 1 nM): 103% | cell viability ([15]; 10 nM): 92.8% | cell viability ([15]; 100 nM): 102% | cell viability ([15]; 1000 nM): 90.8% | cell viability ([15]; 10000 nM): 99.5%

CCCCCCCNS(=O)(=O)c1cccc2c(Cl)cccc12 [SC-10]
relative viability EC50 [1]: > 10 µM | relative viability EC50 [2]: > 10 µM | relative viability EC50 [3]: > 10 µM | relative viability EC50 [4]: > 10 µM | relative viability EC50 [5]: > 10 µM | drug sensitivity score [6]: 0 | drug sensitivity score [7]: 0 | drug sensitivity score [8]: 0 | drug sensitivity score [9]: 0 | drug sensitivity score [10]: 0 | cell viability ([11]; 1 nM): 98.3% | cell viability ([11]; 10 nM): 94.8% | cell viability ([11]; 100 nM): 108% | cell viability ([11]; 1000 nM): 97.5% | cell viability ([11]; 10000 nM): 96.3% | cell viability ([12]; 1 nM): 112% | cell viability ([12]; 10 nM): 99.9% | cell viability ([12]; 100 nM): 84.6% | cell viability ([12]; 1000 nM): 123% | cell viability ([12]; 10000 nM): 90.7% | cell viability ([13]; 1 nM): 117% | cell viability ([13]; 10 nM): 95.8% | cell viability ([13]; 100 nM): 102% | cell viability ([13]; 1000 nM): 100% | cell viability ([13]; 10000 nM): 95.3% | cell viability ([14]; 1 nM): 97.7% | cell viability ([14]; 10 nM): 98.1% | cell viability ([14]; 100 nM): 93.5% | cell viability ([14]; 1000 nM): 103% | cell viability ([14]; 10000 nM): 96.2% | cell viability ([15]; 1 nM): 99.7% | cell viability ([15]; 10 nM): 106% | cell viability ([15]; 100 nM): 93.8% | cell viability ([15]; 1000 nM): 105% | cell viability ([15]; 10000 nM): 105%
